# Assay results from US20070054848A1, “Composition and method for nerve regeneration” (priority 2003, published 2007).
# Entries after “also recorded” stand apart in the source; their conditions may differ. Where no end group is shown, it is not given here. The star is where a group is joined. TAT = PTD (protein transduction domain) peptide fused to the peptide; Myristoyl = CCCCCCCCCCCCCC(=O)*
# What was measured:
# [1] = tested on: cerebellar granule neurons from P7 rats; test: Neurite outgrowth assay, cerebellar neurons; assay type: cell-based, rat; settings: P7 rat cerebellar granule neurons
# [2] = tested on: cerebellar granule neurons; test: Fluorescence Ca2+ imaging (Oregon-green 488BAPTA-1 and Fura Red); assay type: cell-based; settings: p7 rat cerebellar granule neurons
# p75 [3] = molecular target: T1, p75 (Homo sapiens, UniProt P08138); test: Co-precipitation of p75 and Rho GDI with purified recombinant proteins; assay type: binding; settings: 1 μM GST-Rho GDI and Pep5 at the indicated concentrations
# T1 construct: host or cells: 293T cells (p75)
# T1 sequence (P08138 29-427): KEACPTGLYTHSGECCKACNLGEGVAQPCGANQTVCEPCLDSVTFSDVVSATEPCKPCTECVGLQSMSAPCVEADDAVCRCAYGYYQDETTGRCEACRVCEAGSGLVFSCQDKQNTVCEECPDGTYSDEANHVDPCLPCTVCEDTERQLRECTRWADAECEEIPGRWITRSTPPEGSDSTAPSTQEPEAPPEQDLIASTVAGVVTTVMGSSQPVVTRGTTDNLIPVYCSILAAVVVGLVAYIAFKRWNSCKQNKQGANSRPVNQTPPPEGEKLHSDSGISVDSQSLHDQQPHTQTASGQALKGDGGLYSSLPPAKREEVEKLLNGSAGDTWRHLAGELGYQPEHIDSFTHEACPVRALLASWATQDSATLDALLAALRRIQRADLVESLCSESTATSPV
# [4] = tested on: superior cervical ganglion neurons; assay type: cell-based; settings: 100 ng/ml BDNF; data not shown
# hippocampal neurons = assay type: cell-based; settings: data not shown
# DRG neurons = test: Neurite outgrowth assay, DRG neurons; assay type: cell-based, mice
# p75 [5] = molecular target: T2, p75 (Mus musculus, UniProt Q9Z0W1); test: Co-precipitation of p75 with recombinant GST-Pep5; assay type: binding; settings: lysates prepared from post-natal cerebellum
# T2 construct: was incubated with lysates prepared from post-natal cerebellum that abundantly express p75; from tissue; host or cells: post-natal cerebellum
# T2 sequence (Q9Z0W1 32-427): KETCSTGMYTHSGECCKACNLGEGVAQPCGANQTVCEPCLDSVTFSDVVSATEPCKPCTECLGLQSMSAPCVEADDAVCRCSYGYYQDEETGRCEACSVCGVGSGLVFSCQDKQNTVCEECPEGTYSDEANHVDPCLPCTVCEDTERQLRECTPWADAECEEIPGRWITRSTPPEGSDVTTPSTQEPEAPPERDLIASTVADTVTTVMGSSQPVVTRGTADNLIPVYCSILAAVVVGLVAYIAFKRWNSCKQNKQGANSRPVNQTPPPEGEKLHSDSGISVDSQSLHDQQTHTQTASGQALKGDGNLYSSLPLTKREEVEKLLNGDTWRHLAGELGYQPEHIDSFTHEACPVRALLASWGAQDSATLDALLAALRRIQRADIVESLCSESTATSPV
# From the text: As all the myelin-derived inhibitors of axonal regeneration identified so far act on neurons through p75, intervening with p75 signaling after injury to the central nervous system may alleviate myelin-dependent inhibition of axonal regeneration. […] The specific peptide ligand to the p75 HD was previously obtained from a combinatorial library (Ilag, L. L. et al., Biochem Biophys Res Commun. 255, 104-109 (1999)). This ligand is a 15 amino acid residue peptide (Pep5; […] (SEQ ID NO: 2)) and the binding site was mapped by nuclear magnetic resonance spectroscopy onto a hydrophobic patch framed by helices 5 and 6. […] The present inventors first confirmed whether p75 associates with Pep5. Glutathione S-transferase-fusion protein containing Pep5 (GST-Pep5) was incubated with lysates prepared from post-natal cerebellum that abundantly express p75. […] Therefore, Pep5 has a potential to disrupt the signal mediated by p75 in vitro. As the peptide ligand must gain entry into the cell if it is to act directly on the p75 HD in vivo, the present inventors generated Pep5 fused with the amino-terminal 11 amino acid protein transduction domain (PTD domain) from the human immunodeficiency virus protein, TAT (TAT-Pep5) (Schwarze, S. R., Ho, A., Vocero-Akbani, A. & Dowdy, S. F., Science 285, 1569-1572 (1999)). […] Thus, Pep5 may be used as an inhibitor of Rho GDI association with p75.
# DRG neurons from P1 rats = test: Neurite outgrowth assay, dissociated DRG neurons; assay type: cell-based, rat
# RhoA [6] = test: Affinity-precipitation of GTP-RhoA; assay type: cell-based; settings: P7 rat cerebellar neurons
# Method: Cells were lysed in 50 mM Tris, pH 7.5, 1% Triton X-100, 0.5% sodium deoxycholate, 0.1% SDS, 500 mM NaCl, 10 mM MgCl2, with leupeptin and aprotinin, each at 10 μg/ml (Tang S. et al., J. Cell Biol., 138, 1355-1366 (1997)). Cell lysates were clarified by centrifugation at 13,000 g at 4° C. for 10 min, and the supernatants were incubated with the 20 μg of GST-Rho binding domain of Rhotekin beads (Upstate Biotechnology) at 4° C. for 45 min. The beads were washed 4 times with washing buffer (50 mM Tris, pH 7.5 containing 1% Triton X-100, 150 mM NaCl, 10 mM MgCl2, 10 μg/ml leupeptin, and 10 μg/ml aprotinin). Bound Rho proteins were detected by Western blotting using a monoclonal antibody against RhoA (Santa Cruz Biotechnology).
# To address this, we measured RhoA activity in the neurons. Using the RhoA-binding domain of the effector protein Rhotekin (Ren, X. D. et al., EMBO J., 18, 578-585 (1999)), the GTP-bound form of RhoA can be affinity-precipitated. […] The PKC inhibitor had no effect on the Rho activity induced by MAG-Fc or the Nogo peptide. Thus, promotion of neurite outgrowth of the cerebellar neurons by inhibition of PKC was not mediated by the block of RhoA activation, showing that PKC is not upstream of RhoA.
# [7] = tested on: E12 chick dorsal root ganglia explants; test: Growth cone collapse assay; assay type: cell-based; settings: chick E12 DRG explants; myelin 0.1 to 10 ng/μl
# Method: Explants of E12 chick dorsal root ganglia were incubated for 24 hours on plastic slides precoated with 100 μg/ml poly-L-lysine, and were treated for 30 minutes with soluble CNS myelin extracts (Sigma) at the indicated concentrations (MAG-Fc (25 μg/ml) or the Nogo peptide (4 μM)). Explants were fixed in 4% (wt/vol) paraformaldehyde, and were stained with fluorescence-labeled phalloidin (Sigma).
# nerve regeneration = test: Similar experiments with modified amino acid agents (Example 2-8)
# Method: Similar experiments were carried out using Pep5 in which alanine was added to the C terminus of the sequence (SEQ ID NO: 2), antibodies for the extracellular domain of p75, and p75 in which alanine was replaced with valine at amino acid 423 in positions 273-427 of SEQ ID NO: 4.
# spinal cord [8] = test: Spinal cord injury in rats (dorsal half dissected), BBB score; assay type: in vivo, rat; settings: 200 g male Wistar rats; continuous osmotic pump to the injured site
# RhoA [9] = test: Affinity-precipitation of GTP-RhoA in cerebellar neurons; assay type: cell-based, mice; settings: post-natal cerebellar neurons; TAT-Pep5 (1 μM)
# Method: 293 cells were transfected with pcDNA3 vectors containing wild type RhoA whose NH2-terminus is tagged with HA (Yamashita, T. et al., Neuron. 24:585-593, 1999) and/or full-length human p75 by lipofection using Lipofectamine 2000 (Gibco BRL). Cerebellar neurons from P9 mice were isolated as described previously (Cai et. al, Neuron, 22:89-101, 1999). Cells were lysed in 50 mM Tris (pH 7.5), 1% Triton X-100, 0.5% sodium deoxycholate, 0.1% SDS, 500 mM NaCl, 10 mM MgCl2, with leupeptin and aprotinin, each at 10 μg/ml. Cell lysates were clarified by centrifugation at 13,000×g at 4° C. for 10 min, and the supernatants were incubated with the 20 μg of GST-Rho binding domain of Rhotekin beads (Upstate Biotech.) at 4° C. for 45 min. The beads were washed 4 times with washing buffer (50 mM Tris (pH 7.5) containing 1% Triton X-100, 150 mM NaCl, 10 mM MgCl2, 10 μg/ml each of leupeptin and aprotinin). Bound Rho proteins were detected by Western blotting using a monoclonal antibody against RhoA (Santa Cruz Biotechnology).
# Amino-terminally FLAG-tagged human p75 or the deletion mutants of p75 ICD were cloned into pcDNA3.1 expression plasmid, and were transfected with 293T cells. […] Bound Rho proteins were detected by Western blotting using a monoclonal antibody against RhoA (Santa Cruz Biotechnology).
# [10] = molecular target: T3, interaction of p75 with Rho GDI (Mus musculus, UniProt Q9Z0W1); test: Co-immunoprecipitation of endogenous p75 and Rho GDI in cerebellar neurons; assay type: cell-based, mice; settings: dissociated cerebellar neurons
# T3 construct: endogenous in cells; host or cells: primary cerebellar neurons from P9 mice
# T3 sequence (Q9Z0W1 32-427): T2 sequence (Q9Z0W1 32-427)
# spinal cord [11] = test: Similar spinal cord experiments in mice (Example 2-7); assay type: in vivo
# cerebellar neurons = test: Neurite outgrowth assay, post-natal cerebellar neurons; assay type: cell-based, mice; settings: post-natal cerebellar neurons
# spinal cord [12] = test: Spinal cord injury in rats, p21 / TAT-bound p21, BBB score; assay type: in vivo, rat; settings: 200 g male Wistar rats; osmotic pump for 2 weeks; observed from day 2 for 6 weeks
# [13] = molecular target: catalytic domain of Rho-kinase (GST-CAT) (Bos taurus, UniProt Q28021); test: In vitro binding assay of p21 and Rho-kinase (GST-CAT); settings: GST-CAT; aa 6-553
# catalytic domain of Rho-kinase (GST-CAT), sequence (Q28021 6-553 limits assumed): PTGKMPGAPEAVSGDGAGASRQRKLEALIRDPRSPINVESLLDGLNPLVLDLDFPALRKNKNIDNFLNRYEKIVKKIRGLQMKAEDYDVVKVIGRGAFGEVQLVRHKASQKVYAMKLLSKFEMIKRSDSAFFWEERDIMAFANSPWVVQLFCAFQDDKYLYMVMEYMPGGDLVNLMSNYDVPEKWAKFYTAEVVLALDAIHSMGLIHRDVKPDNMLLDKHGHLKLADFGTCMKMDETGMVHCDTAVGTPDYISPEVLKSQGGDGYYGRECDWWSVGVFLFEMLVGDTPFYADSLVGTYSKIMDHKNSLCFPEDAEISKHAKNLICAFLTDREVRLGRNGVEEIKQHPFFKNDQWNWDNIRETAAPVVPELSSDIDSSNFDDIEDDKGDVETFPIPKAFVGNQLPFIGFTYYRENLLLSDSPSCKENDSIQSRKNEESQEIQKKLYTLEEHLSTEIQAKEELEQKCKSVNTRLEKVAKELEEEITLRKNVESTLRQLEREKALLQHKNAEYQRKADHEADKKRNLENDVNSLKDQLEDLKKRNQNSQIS
compound,measurement,setting,value
COc1ccc2c(c1)CC[C@@H]1[C@@H]2CC[C@]2(C)[C@@H](NCCCCCCN3C(=O)C=CC3=O)CC[C@@H]12 [U73122],modulation of neurite outgrowth inhibition by MAG-Fc or the Nogo peptide,[1],neither PTX nor U73122 modulated
same,effect on Ca2+ elevation induced by MAG,[2],blocked
CFFRGGFFNHNPRYC [Pep5],association of p75 with Rho GDI,p75 [3],inhibited the association of p75 with Rho GDI dose dependently; also recorded: inhibits the binding of p75 with Rho GDI dose dependently
same,cell death of superior cervical ganglion neurons,[4],did not inhibit
same,NGF-induced promotion of the neurite outgrowth,hippocampal neurons,did not inhibit
same,neurite outgrowth of neurons which express the short isoform but not the full-length p75,DRG neurons,did not affect the neurite outgrowth
GST-Pep5: Glutathione S-transferase-fusion protein containing Pep5,co-precipitation of p75,p75 [5],revealed the presence of a protein corresponding to p75
"PKC inhibitor: cell permeable PKC inhibitor 20-28 (Calbiochem), specific membrane permeable PKC inhibitor peptide (Myristoyl-FARKGALRQ; not fully specified (C-terminus); UniProt P17252 20-28, looked up, fragment)",neurite outgrowth (substance alone),"[1]; MAG-Fc 25 μg/ml, Nogo peptide 4 μM",no effect on the growth
same,modulation of MAG-Fc effect on neurite outgrowth,DRG neurons from P1 rats,no modulating effect
same,effect on Rho activity induced by MAG-Fc or the Nogo peptide,RhoA [6],no effect
same,effect on growth cone collapse mediated by myelin,[7],completely reversed
Pep5 in which alanine was added to the C terminus: Pep5 in which alanine was added to the C terminus of the sequence (SEQ ID NO: 2) (CFFRGGFFNHNPRYC),nerve regeneration,nerve regeneration,nerve regeneration was similarly observed
"TAT-CFFRGGFFNHNPRYC ({TAT}-CFFRGGFFNHNPRYC; cysteine pairing not given here; also: TAT (PTD) sequence not fixed) [TAT-Pep5, Pep5 fused with the amino-terminal 11 amino acid protein transduction domain from HIV TAT]",nerve regeneration after spinal cord injury,spinal cord [8],nerve regeneration was significantly observed
same,activation of RhoA induced by MAG-Fc or the Nogo peptide,RhoA [9],inhibited the activation of RhoA; also recorded: completely abolishes these effects
same,interaction of p75 with Rho GDI induced by MAG-Fc,[10],significantly inhibited; also recorded: diminished
same,nerve regeneration,spinal cord [11],nerve regeneration was similarly observed
same,"responsiveness of DRG neurons to MAG (25 μg/ml) and the Nogo peptide (4 μM), neurite outgrowth",DRG neurons; added exogenously at 100 nM,abolished their responsiveness
same,inhibitory effect of MAG (25 μg/ml) and the Nogo peptide (4 μM) on neurite outgrowth,cerebellar neurons,efficiently silenced the inhibitory effect
"p21: Recombinant full-length p21 (1-164 in SEQ ID NO: 23), cyclin-dependent protein kinase inhibitor",functional recovery after spinal cord injury (BBB score),spinal cord [12],an effect was not sufficiently observed
same,in vitro interaction with Rho-kinase,[13],bound to each other in vitro
